Measurements published in US10273224B2, “Substituted pyrimidine compounds, compositions and medicinal applications thereof” (JUBILANT BIOSYS LIMITED, priority 2013, dated 2019).

These compounds were tested against T1, EGFR (L858R & T790M) (Homo sapiens, UniProt P00533, L858R/T790M) (assay: EGFR (L858R & T790M) inhibition assay, HTRF method). Settings: biochemical HTRF; EGFR (T790M/L858R) 2.5 nM, ATP 5 μM, 60 min room temperature.
T1 construct: GST; purchased Proqinase
Method in brief: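 GST-EGFR T790M/L858R (2.5 nM) phosphorylating biotinylated gastrin precursor peptide (0.5 μM) with 5 μM ATP in HEPES pH 7.4/Mg/Mn buffer, 60 min room temperature; compounds from 10 μM top. HTRF read-out (Eu anti-pTyr, SA-APC), 665/620 nm; IC50 from % inhibition.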

T1 sequence (P00533 25-1210 T790M/L858R): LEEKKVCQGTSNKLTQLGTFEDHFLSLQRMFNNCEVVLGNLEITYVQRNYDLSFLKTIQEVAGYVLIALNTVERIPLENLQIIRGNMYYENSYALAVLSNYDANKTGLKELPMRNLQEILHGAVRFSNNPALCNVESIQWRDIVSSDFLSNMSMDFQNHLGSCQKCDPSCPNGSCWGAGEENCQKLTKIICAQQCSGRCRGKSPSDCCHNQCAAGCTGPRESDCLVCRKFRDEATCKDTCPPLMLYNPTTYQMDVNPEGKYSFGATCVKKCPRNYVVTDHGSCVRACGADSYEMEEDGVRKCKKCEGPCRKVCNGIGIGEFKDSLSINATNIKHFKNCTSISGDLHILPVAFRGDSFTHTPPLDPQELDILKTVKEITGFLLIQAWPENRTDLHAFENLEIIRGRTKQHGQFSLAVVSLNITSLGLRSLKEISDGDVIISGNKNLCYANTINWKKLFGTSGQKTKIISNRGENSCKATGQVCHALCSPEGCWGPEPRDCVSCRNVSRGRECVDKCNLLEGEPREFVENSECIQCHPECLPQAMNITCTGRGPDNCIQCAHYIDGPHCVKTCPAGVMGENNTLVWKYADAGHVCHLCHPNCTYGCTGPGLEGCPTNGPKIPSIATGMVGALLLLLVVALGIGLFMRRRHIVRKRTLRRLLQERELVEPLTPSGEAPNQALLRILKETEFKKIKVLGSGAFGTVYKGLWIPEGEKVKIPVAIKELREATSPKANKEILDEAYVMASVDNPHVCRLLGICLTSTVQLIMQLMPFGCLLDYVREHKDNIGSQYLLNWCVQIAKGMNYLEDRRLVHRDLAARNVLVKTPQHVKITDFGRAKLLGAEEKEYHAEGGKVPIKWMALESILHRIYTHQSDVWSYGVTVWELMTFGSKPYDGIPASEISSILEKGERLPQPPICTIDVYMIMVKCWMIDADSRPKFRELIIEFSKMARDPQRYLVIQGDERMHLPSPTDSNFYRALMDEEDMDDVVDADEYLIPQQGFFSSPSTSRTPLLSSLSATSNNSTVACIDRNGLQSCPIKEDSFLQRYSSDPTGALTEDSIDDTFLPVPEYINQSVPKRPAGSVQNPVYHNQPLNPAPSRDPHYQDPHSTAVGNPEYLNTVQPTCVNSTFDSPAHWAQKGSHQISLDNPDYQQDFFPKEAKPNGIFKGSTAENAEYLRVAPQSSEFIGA

| IC50 | SMILES |
| --- | --- |
| < 0.01 µM | C=CC(=O)Nc1cccc(Nc2nc(Nc3cn(C)nc3C)ncc2Cl)c1 [Compound I-34, N-(3-((5-chloro-2-((1,3-dimethyl-1H-pyrazol-4-yl)amino)pyrimidin-4-yl)amino)phenyl)acrylamide] |
| 0.01 to 0.1 µM | C=CC(=O)Nc1cccc(Oc2nc(Nc3cnn(CCOC)c3)ncc2Cl)c1 [Compound I-87, N-(3-((5-chloro-2-((1-(2-methoxyethyl)-1H-pyrazol-4-yl)amino)pyrimidin-4-yl)oxy)phenyl)acrylamide] |
| > 0.1 µM | CN(C)C/C=C/C(=O)N[C@@H]1CCC[C@@H](CNc2nc(Nc3cnn(C)c3)ncc2Cl)C1 (single isomer, unassigned) [I-102 (diastereomer 1)] |
| < 0.01 µM | C=CC(=O)Nc1ccc(F)c(Nc2nc(Nc3cc(C)ns3)ncc2Cl)c1 [Compound I-117, N-(3-((5-chloro-2-((3-methylisothiazol-5-yl)amino)pyrimidin-4-yl)amino)-4-fluorophenyl)acrylamide] |
| > 0.1 µM | C=CC(=O)NC1CCCC(Oc2nc(Nc3cnn(C)c3)ncc2Cl)C1 (single isomer, unassigned) [I-89 (Isomer 2), N-(3-((5-chloro-2-((1-methyl-1H-pyrazol-4-yl)amino)pyrimidin-4-yl)oxy)cyclohexyl)acrylamide] |
| 0.01 to 0.1 µM | C=CC(=O)Nc1ccnc(Nc2nc(Nc3cnn(C)c3)ncc2Cl)c1 [Compound I-116, N-(2-((5-chloro-2-((1-methyl-1H-pyrazol-4-yl)amino)pyrimidin-4-yl)amino)pyridin-4-yl)acrylamide] |
| > 0.1 µM | C=CC(=O)Nc1cccc(Oc2nc(Nc3c(C)nn(C4CCN(C)CC4)c3C)ncc2Cl)c1 [Compound I-83, N-(3-((5-chloro-2-((3,5-dimethyl-1-(1-methylpiperidin-4-yl)-1H-pyrazol-4-yl)amino)pyrimidin-4-yl)oxy)phenyl)acrylamide] |
| 0.01 to 0.1 µM | C=CC(=O)NC1CCCC(Nc2nc(Nc3cc(C)ns3)ncc2Cl)C1 (stereo not shown) [Compound I-114, N-(3-((5-chloro-2-((3-methylisothiazol-5-yl)amino)pyrimidin-4-yl)amino)cyclohexyl)acrylamide] |
| < 0.01 µM | C=CC(=O)Nc1cccc(Nc2nc(Nc3cnn(C4CCN(CCF)CC4)c3)ncc2Cl)c1 [Compound I-16, N-(3-((5-chloro-2-((1-(1-(2-fluoroethyl)piperidin-4-yl)-1H-pyrazol-4-yl)amino)pyrimidin-4-yl)amino)phenyl)acrylamide] |
| > 0.1 µM | C=CC(=O)N1CCC(Oc2nc(Nc3cnn(C)c3)ncc2Cl)C1 (single isomer, unassigned) [II-11 (Enantiomer 2), 1-(3-((5-chloro-2-((1-methyl-1H-pyrazol-4-yl)amino)pyrimidin-4-yl)oxy)pyrrolidin-1-yl)prop-2-en-1-one] |
| > 0.1 µM | C=CC(=O)Nc1ccc(F)c(Nc2nc(Nc3ncc(C#N)s3)ncc2Cl)c1 [Compound I-121, N-(3-((5-chloro-2-((5-cyanothiazol-2-yl)amino)pyrimidin-4-yl)amino)-4-fluorophenyl)acrylamide] |
| > 0.1 µM | C=CC(=O)N1CCC(Oc2nc(Nc3cnn(C)c3)ncc2Cl)C1 (single isomer, unassigned) [II-10 (Enantiomer 1), 1-(3-((5-chloro-2-((1-methyl-1H-pyrazol-4-yl)amino)pyrimidin-4-yl)oxy)pyrrolidin-1-yl)prop-2-en-1-one] |
| > 0.1 µM | C=CC(=O)Nc1cccc(Nc2nc(Nc3cnn(Cc4cccc(C)n4)c3)ncc2Cl)c1 [Compound I-52, N-(3-((5-chloro-2-((1-((6-methylpyridin-2-yl)methyl)-1H-pyrazol-4-yl)amino)pyrimidin-4-yl)amino)phenyl)acrylamide] |
| 0.01 to 0.1 µM | C=CC(=O)Nc1cc(Nc2nc(Nc3cnn(C)c3)ncc2Cl)ccc1F [Compound I-66, N-(5-((5-chloro-2-((1-methyl-1H-pyrazol-4-yl)amino)pyrimidin-4-yl)amino)-2-fluorophenyl)acrylamide] |
| < 0.01 µM | C=CC(=O)Nc1ccc(F)c(N(C)c2nc(Nc3cnn(C)c3)ncc2Cl)c1 [Compound I-111, N-(3-((5-chloro-2-((1-methyl-1H-pyrazol-4-yl)amino)pyrimidin-4-yl)(methyl)amino)-4-fluorophenyl)acrylamide] |
| 0.01 to 0.1 µM | C=CC(=O)Nc1cccc(Nc2nc(Nc3cnn(C4CCOCC4)c3)ncc2Cl)c1 [Compound I-45, N-(3-((5-chloro-2-((1-(tetrahydro-2H-pyran-4-yl)-1H-pyrazol-4-yl)amino)pyrimidin-4-yl)amino)phenyl)acrylamide] |
| < 0.01 µM | C=CC(=O)Nc1ccc(F)c(Nc2nc(Nc3cn(C)nc3C)ncc2Cl)c1 (single isomer, unassigned) [Compound I-70, N-(3-((5-chloro-2-((1,3-dimethyl-1H-pyrazol-4-yl)amino)pyrimidin-4-yl)amino)-4-fluorophenyl)acrylamide] |

| IC50 | SMILES |
| --- | --- |
| < 0.01 µM | C=CC(=O)Nc1cccc(Nc2nc(Nc3cnn(C4CCN(C)CC4)c3)ncc2Cl)c1 [Compound I-1, N-(3-((5-chloro-2-((1-(1-methylpiperidin-4-yl)-1H-pyrazol-4-yl)amino)pyrimidin-4-yl)amino)phenyl)acrylamide] |
| 0.01 to 0.1 µM | C=CC(=O)Nc1cccc(Nc2nc(Nc3cn(C)cn3)ncc2Cl)c1 [Compound I-60, N-(3-((5-chloro-2-((1-methyl-1H-imidazol-4-yl)amino)pyrimidin-4-yl)amino)phenyl)acrylamide] |
| 0.01 to 0.1 µM | C=CC(=O)Nc1cccc(Nc2nc(Nc3cnn(CCOC)c3C)ncc2Cl)c1 [Compound I-3, N-(3-((5-chloro-2-((1-(2-methoxyethyl)-5-methyl-1H-pyrazol-4-yl)amino)pyrimidin-4-yl)amino)phenyl)acrylamide] |
| > 0.1 µM | C=CC(=O)Nc1cccc(Nc2nc(Nc3c(C)nn(C)c3C)ncc2Cl)c1 [Compound I-11, N-(3-((5-chloro-2-((1,3,5-trimethyl-1H-pyrazol-4-yl)amino)pyrimidin-4-yl)amino)phenyl)acrylamide] |
| > 0.1 µM | C=CC(=O)NC1CCCC(Nc2nc(Nc3cc(Cl)n(C)n3)ncc2Cl)C1 (stereo not shown) [Compound I-97, N-(3-((5-chloro-2-((5-chloro-1-methyl-1H-pyrazol-3-yl)amino)pyrimidin-4-yl)amino)cyclohexyl)acrylamide] |
| > 0.1 µM | CN1CCC(n2cc(Nc3ncc(Cl)c(Nc4cccc(NC(=O)C=C5CCC5)c4)n3)cn2)CC1 [Compound I-29, N-(3-((5-chloro-2-((1-(1-methylpiperidin-4-yl)-1H-pyrazol-4-yl)amino)pyrimidin-4-yl)amino)phenyl)-2-cyclobutylideneacetamide] |
| 0.01 to 0.1 µM | C=CC(=O)Nc1cccc(Nc2nc(Nc3cnn(C4CCNC(=O)C4)c3)ncc2Cl)c1 (stereo not shown) [Compound I-43, N-(3-((5-chloro-2-((1-(2-oxopiperidin-4-yl)-1H-pyrazol-4-yl)amino)pyrimidin-4-yl)amino)phenyl)acrylamide] |
| > 0.1 µM | C=CC(=O)NC1CCC(Nc2nc(Nc3cnn(C)c3)ncc2Cl)CC1 (stereo not shown) [Compound I-94, N-(4-((5-chloro-2-((1-methyl-1H-pyrazol-4-yl)amino)pyrimidin-4-yl)amino)cyclohexyl)acrylamide] |
| 0.01 to 0.1 µM | C=CC(=O)Nc1cccc(Nc2nc(Nc3cnn(C)c3)ncc2C2CC2)c1 [Compound I-76, N-(3-((5-cyclopropyl-2-((1-methyl-1H-pyrazol-4-yl)amino)pyrimidin-4-yl)amino)phenyl)acrylamide] |
| > 0.1 µM | CN1CCC(n2cc(Nc3ncc(Cl)c(Nc4ccc(F)c(NC(=O)C=C5CCCCC5)c4)n3)cn2)CC1 [Compound I-27, N-(5-((5-chloro-2-((1-(1-methylpiperidin-4-yl)-1H-pyrazol-4-yl)amino)pyrimidin-4-yl)amino)-2-fluorophenyl)-2-cyclohexylideneacetamide] |
| > 0.1 µM | C=CC(=O)Nc1cccc(Nc2nc(Nc3cnn(C4CCC(O)C4)c3)ncc2F)c1 (stereo not shown) [Compound I-37, N-(3-((5-fluoro-2-((1-(3-hydroxycyclopentyl)-1H-pyrazol-4-yl)amino)pyrimidin-4-yl)amino)phenyl)acrylamide] |
| > 0.1 µM | CC(Nc1nc(Nc2cnn(C)c2)ncc1Cl)c1cccc(NC(=O)/C=C/CN(C)C)c1 (stereo not shown) [Compound I-57, (E)-N-(3-(1-((5-chloro-2-((1-methyl-1H-pyrazol-4-yl)amino)pyrimidin-4-yl)amino)ethyl)phenyl)-4-(dimethylamino)but-2-enamide] |
| > 0.1 µM | CN(C)C/C=C/C(=O)NCC1CCCC(Nc2nc(Nc3cnn(C)c3)ncc2Cl)C1 (stereo not shown) [Compound I-109, (E)-N-((3-((5-chloro-2-((1-methyl-1H-pyrazol-4-yl)amino)pyrimidin-4-yl)amino)cyclohexyl)methyl)-4-(dimethylamino)but-2-enamide] |
| 0.01 to 0.1 µM | C=CC(=O)N[C@@H]1CCCC[C@H](Nc2nc(Nc3cnn(C)c3)ncc2Cl)C1 (single isomer, unassigned) [I-113 (Isomer 2)] |
| 0.01 to 0.1 µM | C=CC(=O)Nc1cccc(Nc2nc(Nc3cnn(S(=O)(=O)C4CC4)c3)ncc2Cl)c1 [Compound I-22, N-(3-((5-chloro-2-((1-(cyclopropylsulfonyl)-1H-pyrazol-4-yl)amino)pyrimidin-4-yl)amino)phenyl)acrylamide] |
| < 0.01 µM | C=CC(=O)Nc1ccc(F)c(Nc2nc(Nc3cnn(C)c3)ncc2Cl)c1 [Compound I-39, N-(3-((5-chloro-2-((1-methyl-1H-pyrazol-4-yl)amino)pyrimidin-4-yl)amino)-4-fluorophenyl)acrylamide] |
| > 0.1 µM | C=CC(=O)Nc1cccc(Nc2nc(Nc3cnn(C)c3C)ncc2Cl)n1 (single isomer, unassigned) [Compound I-74, N-(6-((5-chloro-2-((1,5-dimethyl-1H-pyrazol-4-yl)amino)pyrimidin-4-yl)amino)pyridin-2-yl)acrylamide] |
